Data on 14 molecules can be found in US20150315188A1, “COMPOUNDS AND METHODS FOR TREATMENT OF HYPERTENSION” (MEDIVATION TECHNOLOGIES, INC., priority 2012, published 2015).

For orientation: IC50 means the concentration that inhibits the measured activity by half. A high value points to weaker potency. For orientation: Ki means the equilibrium dissociation constant of an inhibitor or competing ligand from its target. As a reminder, the inhibition is the relative decrease from the control value, in per cent.

Assay [1] deals with T1, Human adrenergic α1B receptor (Homo sapiens, UniProt P35368).
T1 sequence (P35368 1-520): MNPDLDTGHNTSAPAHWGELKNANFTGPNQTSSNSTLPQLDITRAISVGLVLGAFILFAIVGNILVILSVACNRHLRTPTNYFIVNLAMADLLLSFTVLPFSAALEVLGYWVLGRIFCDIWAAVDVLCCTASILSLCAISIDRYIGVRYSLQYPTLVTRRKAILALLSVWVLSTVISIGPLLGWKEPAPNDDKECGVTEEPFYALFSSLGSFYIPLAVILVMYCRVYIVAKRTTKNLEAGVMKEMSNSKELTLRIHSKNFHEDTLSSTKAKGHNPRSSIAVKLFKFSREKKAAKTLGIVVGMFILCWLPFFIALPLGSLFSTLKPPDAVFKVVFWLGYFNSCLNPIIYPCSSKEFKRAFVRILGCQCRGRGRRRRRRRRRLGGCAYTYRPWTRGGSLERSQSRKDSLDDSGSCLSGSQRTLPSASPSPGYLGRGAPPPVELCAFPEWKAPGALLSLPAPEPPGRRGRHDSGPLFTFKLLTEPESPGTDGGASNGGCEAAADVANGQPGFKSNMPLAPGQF
Briefly: β-Arrestin GPCR functional assay, adrenergic α1B (Protocol B). The note with it: β-arrestin, antagonist vs nor-epinephrine EC80. It counts as cell-based. In short, it runs like this:
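Antagonist mode: norepinephrine at its EC80 of 50 nM was added for 90 min at 37°C after a 30-min compound pretreatment of CHO cells expressing the human α1B receptor, with DMSO at 1% final. β-Arrestin recruitment read by chemiluminescence (60 min, RT, dark) and expressed as percent inhibition or IC50.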

Assay [2] has as its target T2, Human adrenergic α2A receptor (Homo sapiens, UniProt P08913).
T2 sequence (P08913 1-465): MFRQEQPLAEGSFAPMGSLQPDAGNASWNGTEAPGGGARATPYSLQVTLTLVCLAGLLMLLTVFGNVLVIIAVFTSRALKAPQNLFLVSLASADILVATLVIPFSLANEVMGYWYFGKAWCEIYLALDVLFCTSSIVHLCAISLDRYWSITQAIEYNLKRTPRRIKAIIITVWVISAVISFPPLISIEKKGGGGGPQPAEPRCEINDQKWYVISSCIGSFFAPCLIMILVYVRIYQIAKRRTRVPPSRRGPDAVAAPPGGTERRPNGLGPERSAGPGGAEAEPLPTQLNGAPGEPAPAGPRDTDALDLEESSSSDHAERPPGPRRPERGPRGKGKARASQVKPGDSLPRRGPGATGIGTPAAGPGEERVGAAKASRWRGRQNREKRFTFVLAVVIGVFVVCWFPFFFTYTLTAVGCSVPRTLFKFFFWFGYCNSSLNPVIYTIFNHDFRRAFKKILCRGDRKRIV
As to the kind of experiment: β-Arrestin GPCR functional assay, adrenergic α2A (Protocol B). It counts as cell-based. The note with it: β-arrestin, antagonist vs nor-epinephrine EC80. The method, boiled down:
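Antagonist mode: after 30 min compound pretreatment at 37 °C, 270 nM norepinephrine (EC80) was added for 90 min to CHO cells expressing human α2A. Luminescent enzyme-complementation detection (60 min, RT) quantified β-arrestin recruitment, expressed as percent inhibition or IC50.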

The target in assay [3] is T2, Human adrenergic α2A receptor. Briefly: Radioligand binding, adrenergic α2A (Protocol Group B). Details: purchased Milipore (Millipore). The settings on record: Protocol Group B; for Percentage inhibition of ligand binding, Adrenergic α2A (0.1 μM) / inhibition at 0.1 µM: 0.1 μM compound; for Percentage inhibition of ligand binding, Adrenergic α2A (0.3 μM) / inhibition at 0.3 µM: 0.3 μM compound; for Ki: estimated Ki; for inhibition at 0.1 µM: read-out: Percentage inhibition of ligand binding, Adrenergic α2A (0.1 μM); for inhibition at 0.3 µM: read-out: Percentage inhibition of ligand binding, Adrenergic α2A (0.3 μM). The method, boiled down: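 Compounds (1% DMSO vehicle, various concentrations) competed against 2 nM [^3H]MK-912 on recombinant receptor membranes for 60 min at 25° C, Tris-HCl pH 7.4 buffer with Mg2+, Ca2+, BSA. Bound radioligand filtered and counted; 10 μM rauwolscine set nonspecific binding. Values: percent inhibition of specific binding or estimated Ki.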

Assay [4] addresses T1, Human adrenergic α1B receptor. Briefly: Radioligand binding, adrenergic α1B (Protocol Group B). Details: purchased Milipore (Millipore). The settings on record: Protocol Group B; for Percentage inhibition of ligand binding, Adrenergic α1B (0.1 μM) / inhibition at 0.1 µM: 0.1 μM compound; for Percentage inhibition of ligand binding, Adrenergic α1B (0.3 μM) / inhibition at 0.3 µM: 0.3 μM compound; for Ki: estimated Ki; for inhibition at 0.1 µM: read-out: Percentage inhibition of ligand binding, Adrenergic α1B (0.1 μM); for inhibition at 0.3 µM: read-out: Percentage inhibition of ligand binding, Adrenergic α1B (0.3 μM). The method, boiled down: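 Values are percent inhibition of specific [3H]prazosin (0.3 nM) binding or estimated Ki, from filtration counting. Human α1B recombinant membranes, Tris-HCl pH 7.4 buffer with MgCl2 and EDTA, 60 min at 25 °C, 1% DMSO vehicle; 10 μM prazosin defined nonspecific binding.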

As to `Cc1cc(C)c2c(c1)c1c(n2CC(C)(O)c2cccnc2)CCN2CCCC12` (single isomer, unassigned) [44b], it took 252 nM to reach half-maximal inhibition in assay [1] (IC50). The IC50 in assay [2] was 909 nM. Moreover, in assay [3], the “Percentage inhibition of ligand binding, Adrenergic α2A (0.1 μM)” value amounted to 89%; the “Percentage inhibition of ligand binding, Adrenergic α2A (0.3 μM)” value was found to be 98%; the Ki is 6.2 nM. For the same molecule, in assay [4], the “Percentage inhibition of ligand binding, Adrenergic α1B (0.1 μM)” value amounted to 69%; the “Percentage inhibition of ligand binding, Adrenergic α1B (0.3 μM)” value turned out to be 85%; the Ki was 14 nM.

As for `Cc1ccc2c(c1)c1c(n2CC(C)(O)c2ccnc(F)c2)CCN2CCCC12` (single isomer, unassigned) [48a], the IC50 in assay [1] was 45 nM; in assay [2], 1110 nM. The results for the inhibition at 0.1 µM in assay [3] and in assay [4] were 73% and 85%, respectively. In addition, the values for the inhibition at 0.3 µM in assay [3] and in assay [4] were 82% and 94%, respectively. For the same molecule, the Ki in assay [3] was 31.1 nM; in assay [4], 8.15 nM.

For the molecule `Cc1ccc2c(c1)c1c(n2CC(C)(O)c2ccnc(F)c2)CCN2CCCC12` (single isomer, unassigned) [48b], the IC50 in assay [1] amounted to 123 nM. In assay [2], this molecule returned an IC50 of 491 nM. Moreover, in assay [3], the “Percentage inhibition of ligand binding, Adrenergic α2A (0.1 μM)” value was determined as 83%; the “Percentage inhibition of ligand binding, Adrenergic α2A (0.3 μM)” value is listed as 87%; the Ki is 16.4 nM. In assay [4], the “Percentage inhibition of ligand binding, Adrenergic α1B (0.1 μM)” value came to 71%; the “Percentage inhibition of ligand binding, Adrenergic α1B (0.3 μM)” value was determined as 84%; the inhibition constant Ki was 25.9 nM.

In assay [1], `Cc1cc2c3c(n(CC(C)(O)c4ccncc4)c2cc1Cl)CCN1CCCC31` (single isomer, unassigned) [50a] showed an IC50 of 47 nM. The molecule also returned an IC50 in assay [2] of 713 nM. In assay [3], the inhibition at 0.1 µM is 72%, the inhibition at 0.3 µM turned out to be 83% and the Ki is 6.7 nM. Further, in assay [4], the inhibition at 0.1 µM worked out at 89%, the inhibition at 0.3 µM came out at 96% and the Ki is 3.7 nM.

In assay [1], `Cc1cc2c3c(n(CC(C)(O)c4ccncc4)c2cc1Cl)CCN1CCCC31` (single isomer, unassigned) [50b] yielded a 50% inhibitory concentration (IC50) of 54 nM. In assay [2], this molecule gave an IC50 of 565 nM. Also, in assay [3], the “Percentage inhibition of ligand binding, Adrenergic α2A (0.1 μM)” value turned out to be 73%; the “Percentage inhibition of ligand binding, Adrenergic α2A (0.3 μM)” value is given as 86%; the Ki was 5.69 nM. For the same molecule, in assay [4], the “Percentage inhibition of ligand binding, Adrenergic α1B (0.1 μM)” value was 80%; the “Percentage inhibition of ligand binding, Adrenergic α1B (0.3 μM)” value worked out at 93%; the Ki was 6.9 nM.

Take `CC(O)(Cn1c2c(c3cc(Cl)cc(F)c31)C1CCCN1CC2)c1ccncc1` (single isomer, unassigned) [52a]: the IC50 in assay [1] came to 149 nM. In assay [2], the IC50 was 1020 nM. Besides, in assay [3], the inhibition at 0.1 µM worked out at 80%, the inhibition at 0.3 µM came out at 89% and the Ki was 13 nM. Besides, in assay [4], the “Percentage inhibition of ligand binding, Adrenergic α1B (0.1 μM)” value was 75%; the inhibition at 0.3 µM was determined as 90%; the Ki was 11.4 nM.

In the case of `CC(O)(Cn1c2c(c3cc(Cl)cc(F)c31)C1CCCN1CC2)c1ccncc1` (single isomer, unassigned) [52b], 224 nM corresponded to half-maximal inhibition in assay [1] (IC50). In addition, half-maximal inhibition in assay [2] (IC50) was put at 992 nM. Also, in assay [3], the “Percentage inhibition of ligand binding, Adrenergic α2A (0.1 μM)” value came to 72%; the “Percentage inhibition of ligand binding, Adrenergic α2A (0.3 μM)” value stood at 78%; the inhibition constant Ki was 21.7 nM. For the same molecule, in assay [4], the “Percentage inhibition of ligand binding, Adrenergic α1B (0.1 μM)” value was found to be 35%; the “Percentage inhibition of ligand binding, Adrenergic α1B (0.3 μM)” value is 73%; the Ki is 39.8 nM.

With `Cc1ccc2c(c1)c1c(n2CC(OCC2CCC2)c2ccncc2)CCN(C)C1` (single isomer, unassigned) [59a], the IC50 in assay [1] amounted to 350 nM. This molecule gave an IC50 in assay [2] of 1570 nM. Moreover, in assay [3], the inhibition at 0.1 µM was found to be 84%, the inhibition at 0.3 µM was 91% and the inhibitory constant (Ki) is 10 nM. In assay [4], the inhibition at 0.1 µM worked out at 69%, the inhibition at 0.3 µM is 91% and the Ki was 16 nM.

Regarding `Cc1cc(F)cc2c3c(n(CC(C)(O)c4cccnc4)c12)CCN1CCCC31` (single isomer, unassigned) [75a], the concentration for half-maximal inhibition (IC50) in assay [1] is 719 nM. Inhibition in assay [2] was half-maximal at 2080 nM (IC50). In addition, in assay [3], the “Percentage inhibition of ligand binding, Adrenergic α2A (0.1 μM)” value is on record as 3% and the “Percentage inhibition of ligand binding, Adrenergic α2A (0.3 μM)” value is 22%. Moreover, in assay [4], the “Percentage inhibition of ligand binding, Adrenergic α1B (0.1 μM)” value is −1% and the “Percentage inhibition of ligand binding, Adrenergic α1B (0.3 μM)” value turned out to be 12%.

`Cc1cc(F)c2c(c1)c1c(n2CC(C)(O)c2ccncc2)CCN2CCCC12` (single isomer, unassigned) [81a] showed an IC50 in assay [1] of 91 nM. The molecule also registered a half-maximal inhibitory concentration (IC50) in assay [2] of 1250 nM. In assay [3], the inhibition at 0.1 µM is 71%, the inhibition at 0.3 µM was found to be 90% and the Ki is 19.6 nM. Further, in assay [4], the “Percentage inhibition of ligand binding, Adrenergic α1B (0.1 μM)” value is given as 72%; the inhibition at 0.3 µM worked out at 89%; the Ki was 14.6 nM.

As for `Cc1cc(Cl)c2c(c1)c1c(n2CC(C)(O)c2ccncc2)CCN2CCCC12` (single isomer, unassigned) [91a], the IC50 was 213 nM in assay [1] and 865 nM in assay [2]. Further, the inhibition at 0.1 µM in assay [3] came to 81%; in assay [4], 59%. Further, the inhibition at 0.3 µM amounted to 91% in assay [3] and 81% in assay [4]. For the same molecule, the values for the Ki in assay [3] and in assay [4] were 8.8 nM and 20.9 nM, respectively.

In the case of `Cc1cc(Cl)c2c(c1)c1c(n2CC(C)(O)c2ccncc2)CCN2CCCC12` (single isomer, unassigned) [91b], in assay [1], the IC50 is 283 nM. Moreover, the IC50 in assay [2] is 1780 nM. Moreover, in assay [3], the “Percentage inhibition of ligand binding, Adrenergic α2A (0.1 μM)” value is recorded as 67%; the “Percentage inhibition of ligand binding, Adrenergic α2A (0.3 μM)” value amounted to 86%; the Ki is 28.4 nM. In assay [4], the “Percentage inhibition of ligand binding, Adrenergic α1B (0.1 μM)” value was 43%; the “Percentage inhibition of ligand binding, Adrenergic α1B (0.3 μM)” value is 68%; the inhibition constant (Ki) is 38.2 nM.

`OC(Cn1c2c(c3cc(Cl)cc(F)c31)C1CCCN1CC2)c1ccncc1` (single isomer, unassigned) [135a]: the IC50 in assay [1] stood at 189 nM. For the same molecule, half-maximal inhibition in assay [2] (IC50) required 4350 nM. Further, in assay [3], the “Percentage inhibition of ligand binding, Adrenergic α2A (0.1 μM)” value amounted to 57%; the inhibition at 0.3 µM amounted to 77%; the Ki was 66.1 nM. Moreover, in assay [4], the inhibition at 0.1 µM was determined as 71%, the inhibition at 0.3 µM was 92% and the Ki was 23 nM.

`OC(Cn1c2c(c3cc(Cl)cc(F)c31)C1CCCN1CC2)c1ccncc1` (single isomer, unassigned) [135b] showed an IC50 in assay [1] of 102 nM. Further, it took 295 nM to reach half-maximal inhibition in assay [2] (IC50). In addition, in assay [3], the “Percentage inhibition of ligand binding, Adrenergic α2A (0.1 μM)” value was 79%; the “Percentage inhibition of ligand binding, Adrenergic α2A (0.3 μM)” value was 84%; the Ki is 3.1 nM. In addition, in assay [4], the “Percentage inhibition of ligand binding, Adrenergic α1B (0.1 μM)” value is 64% and the “Percentage inhibition of ligand binding, Adrenergic α1B (0.3 μM)” value was determined as 81%.
